Data: US20250049750A1, “MALTODEXTRIN FORMULATIONS” (Amazentis SA, priority 2023, published 2025)

Experiment: Phase II single-dose oral pharmacokinetic study of urolithin A in a maltodextrin formulation
Type: in vivo
Conditions: human, n = 12
Protocol: A phase II clinical study was carried out to determine the bioavailability of urolithin A when dosed in a formulation containing maltodextrin to human subjects.
In particular, the pharmacokinetic parameters of the compound were investigated in an open-label, parallel-arm, randomized, single-period, single-dose pharmacokinetic study. Subject enrolled where healthy volunteers, both males and females aged between 18 and 45 years. Formulation details and clinical study procedures are described in the method section below.
Subjects were administered orally as a single dose with a maltodextrin formulation (Table 2). The formulations was administered to deliver a total dose of 500 mg Urolithin A per dosing. Plasma samples were collected pre-dosing and at sequential time points after dosing, i.e. 1 hr, 4 hrs, 6 hrs, 8 hrs, 12 hrs, 24 hrs, 72 hrs. Plasma levels of parent Urolithin A were determined and expressed as pg/ml.
A total of 24 participants were enrolled in the study (12 subject per group). Subjects were healthy male and female participants. Subjects were selected after a screening to meet all the following criteria aged between 18 and 45 years; with Body Mass Index (BMI) between 18.50-30.00 kg/m2;
Maltodextrin formulation (urolithin A Powder with Maltodextrin): half a scoop (1.5 g) of powder, containing 500 mg of Urolithin A. Composition is described in Table 2.
Mode of Administration: Participants take the powder orally on an empty stomach in a sitting position, after an overnight fast. The powder was mixed with 240±2 mL of milk, shaken well, and consumed. It was ensured that all liquid was swallowed without leaving any residue behind or retaining in the mouth.
This study was an open-label, parallel-arm, single-period, single-dose, randomized study wherein each participant received a single dose of allocated investigational product administered orally to the trial participants in a sitting posture. The formulation was administered with about 240 mL of whole milk (3% fat content) in a sitting posture.
PK blood samples were collected at pre-dose and post-dose at 1 hr, 4 hrs, 6 hrs, 8 hrs, 12 hrs, 24 hrs, 72 hrs. PK blood samples were collected by direct vein puncture or using a venous cannula. When multiple blood sample collection were scheduled on the same day from the same participant, at the discretion of the investigator, a venous cannula was inserted and blood samples collected from the cannula to avoid multiple pricks. For the same, an intravenous (IV) cannula was placed in a forearm vein or dorsal aspect of the hand of the participants. Intravenous indwelling cannula kept in situ as long as required by injecting 0.3 mL of normal saline or heparinized saline (to prevent the cannula from clogging). Because the cannula contains stagnant blood and normal or heparinized saline, it was […] before collection of the pharmacokinetic blood sample, for the same, 0.3 mL (or as appropriate depending upon the size and length of the cannula) of normal saline/heparinized saline diluted blood was discarded prior to collection of the next PK sample. […] All PK blood samples was collected or transferred (in case if collected in a syringe) in K2-EDTA blood collection tubes.
After collection, the PK blood samples were centrifuged at 4000 RPM at 4° C.±2° C. for 10 minutes. The plasma was separated and transferred to labeled polypropylene tubes and stored in a freezer at −80° C.±10° C. Pharmacokinetics parameters of Urolithin A were calculated from the concentration Vs. time data using Phoenix@WinNonlin® professional software (Version 8.1.1 or higher) (Certara, Princeton, New Jersey, USA).

Urolithin concentrations in blood, Mean (Pre-dose, plasma parent Urolithin A): 1.00 pg/mL
concentration at 1 h (both sexes, 1 h after single oral 500 mg Urolithin A in maltodextrin formulation, plasma, read-out: Urolithin concentrations in blood, Mean): 0.551 ng/mL
concentration at 4 h (both sexes, 4 h after single oral 500 mg Urolithin A in maltodextrin formulation, plasma, read-out: Urolithin concentrations in blood, Mean): 1.07 ng/mL
concentration at 6 h (both sexes, 6 h after single oral 500 mg Urolithin A in maltodextrin formulation, plasma, read-out: Urolithin concentrations in blood, Mean): 1.4 ng/mL
concentration at 8 h (both sexes, 8 h after single oral 500 mg Urolithin A in maltodextrin formulation, plasma, read-out: Urolithin concentrations in blood, Mean): 0.775 ng/mL
concentration at 12 h (both sexes, 12 h after single oral 500 mg Urolithin A in maltodextrin formulation, plasma, read-out: Urolithin concentrations in blood, Mean): 0.72 ng/mL
concentration at 24 h (both sexes, 24 h after single oral 500 mg Urolithin A in maltodextrin formulation, plasma, read-out: Urolithin concentrations in blood, Mean): 0.404 ng/mL
concentration at 72 h (both sexes, 72 h after single oral 500 mg Urolithin A in maltodextrin formulation, plasma, read-out: Urolithin concentrations in blood, Mean): 0.167 ng/mL
Compound: O=c1oc2cc(O)ccc2c2ccc(O)cc12 [Urolithin A]
